Experimental data as given in patent US12679807B2 (MERCK SHARP & DOHME LLC, priority 2020, dated 2026).

What follows are compounds tested against T1, GCS enzyme contained within Golgi preparations isolated from human A375 malignant melanoma skin cells (Homo sapiens, UniProt Q16739) (assay: UDP-Glo glucosylceramide synthase biochemical assay). Settings: crude Golgi preparation from A375 cells; C6 ceramide and UDP-glucose substrates; 20 h incubation at room temperature; UDP detected by luminescence.
T1 construct: endogenous levels of GCS enzyme contained within Golgi preparations isolated from human A375 malignant melanoma skin cells; endogenous in cells; host or cells: A375 human malignant melanoma cells (crude Golgi preparation)
T1 sequence (Q16739 1-394): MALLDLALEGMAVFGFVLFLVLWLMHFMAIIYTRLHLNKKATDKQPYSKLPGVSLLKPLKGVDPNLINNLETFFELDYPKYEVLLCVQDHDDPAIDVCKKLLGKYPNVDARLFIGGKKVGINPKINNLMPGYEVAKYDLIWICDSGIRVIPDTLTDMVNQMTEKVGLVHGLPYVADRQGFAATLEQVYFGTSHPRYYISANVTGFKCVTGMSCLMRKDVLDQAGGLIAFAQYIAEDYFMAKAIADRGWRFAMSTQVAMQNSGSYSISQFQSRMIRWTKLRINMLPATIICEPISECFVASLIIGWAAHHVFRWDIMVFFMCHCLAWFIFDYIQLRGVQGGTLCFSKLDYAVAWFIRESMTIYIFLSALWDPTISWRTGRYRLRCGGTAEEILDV
Source text: UDP-Glo™ Glucosylceramide Synthase Biochemical Assay
A UDP-Glo™ glucosylceramide synthase biochemical assay was utilized to evaluate the effect of test compounds on the activity of endogenous levels of GCS enzyme contained within Golgi preparations isolated from human A375 malignant melanoma skin cells. The UDP-Glo™ glucosylceramide synthase assay uses UDP-Glucose as a nucleotide-glycosyl donor and ceramide as substrate acceptor molecules. In the reaction, glucosylceramide synthase (GCS) transfers glucose from UDP-Glucose to ceramide. Glucosylceramide and UDP are released as products.
Using Promega's UDP-Glo™ Glycosyltransferase assay kit (Promega Corporation, Madison, WI, USA (Promega)), GCS activity was indirectly measured by detecting the amount of UDP produced. An aliquot of GCS enzyme (1.5 μg crude golgi preparation, total protein) and titrated test compound were aliquoted to each well and incubated for 30 minutes at room temperature. […] An equivalent volume of substrate mixture was then added to each well. Following a 20 h incubation at room temperature to allow for GCS turnover of substrate, an equal volume of UDP detection reagent (Promega) was added to each well and incubated for an additional 75 minutes at room temperature to simultaneously convert the accumulated UDP product into ATP and generate light in a luciferase reaction. The generated light was detected using a luminometer. […] luminescence values (RLUs) were normalized to mean “min” and “max” effects, as determined on each plate. […] Values for % Emax and EC50 were determined by best-fitting the normalized data to a curve in Activity Base along a four-parameter logistic nonlinear regression (4PL) model (based on the Levenberg-Marquardt algorithm and defined by the equation below):
[formula] where: n is 4 PMin (bottom of the curve); m is 4 PMax (top of the curve); i is IP (inflection point of curve); and p is slope. See Levenberg, K., “A Method for the Solution of Certain Problems in Least Squares”, Quart. Appl. Math. […] Math.
Work on `CC(C)(O)C(C1CC1)N1Cc2cccc(C#Cc3ccnc4c3CCC4)c2C1=O` (single isomer, unassigned) [Compound 172, (R or S)-2-(1-Cyclopropyl-2-hydroxy-2-methylpropyl)-7-((6,7-dihydro-5H-cyclopenta[b]pyridin-4-yl)ethynyl)isoindolin-1-one] yielded an EC50 of 0.0097 µM.
In the case of `CC(C)(O)C(C1CC1)N1Cc2cccc(CCc3ccnc4c3CCC4)c2C1=O` (single isomer, unassigned) [Compound 173, (R or S)-2-(1-Cyclopropyl-2-hydroxy-2-methylpropyl)-7-(2-(6,7-dihydro-5H-cyclopenta[b]pyridin-4-yl)ethyl)isoindolin-1-one], the EC50 is reported as 0.12 µM.
`CC(C)(O)C(C1CC1)N1Cc2cccc(/C=C/c3c(Cl)cnc4c3OCO4)c2C1=O` (single isomer, unassigned) [Compound 174, (R or S)-(E)-7-(2-(6-Chloro-[1,3]dioxolo[4,5-b]pyridin-7-yl)vinyl)-2-(1-cyclopropyl-2-hydroxy-2-methylpropyl)isoindolin-1-one] was tested, and the EC50 was 0.0068 µM.
Compound `Cc1cnc2c(c1/C=C/c1cccc3c1C(=O)N(C(C1CC1)C(C)(C)O)C3)OCO2` (single isomer, unassigned) [Compound 175, (R or S)-(E)-2-(1-Cyclopropyl-2-hydroxy-2-methylpropyl)-7-(2-(6-methyl-[1,3]dioxolo[4,5-b]pyridin-7-yl)vinyl)isoindolin-1-one] has an EC50 of 0.027 µM.
Compound `Cc1cnc2c(c1CCc1cccc3c1C(=O)N(C(C1CC1)C(C)(C)O)C3)OCO2` (single isomer, unassigned) [Compound 176, (R or S)-2-(1-Cyclopropyl-2-hydroxy-2-methylpropyl)-7-(2-(6-methyl-[1,3]dioxolo[4,5-b]pyridin-7-yl)ethyl)isoindolin-1-one] has an EC50 of 0.014 µM.
With `CC(C)(O)C(C1CC1)N1Cc2cccc(COc3c(Cl)cnc4c3OCO4)c2C1=O` (single isomer, unassigned) [Compound 177, (R or S)-7-(((6-chloro-[1,3]dioxolo[4,5-b]pyridin-7-yl)oxy)methyl)-2-(1-cyclopropyl-2-hydroxy-2-methylpropyl)isoindolin-1-one] the EC50 was 0.028 µM.
In the case of `Cc1cnc2c(c1NCc1cccc3c1C(=O)N(C(C1CC1)C(C)(C)O)C3)OCO2` (single isomer, unassigned) [Compound 178, (R or S)-2-(1-Cyclopropyl-2-hydroxy-2-methylpropyl)-7-(((6-methyl-[1,3]dioxolo[4,5-b]pyridin-7-yl)amino)methyl)isoindolin-1-one], the EC50 is reported as 0.021 µM.
Compound `CC(C)(O)C(C1CC1)N1Cc2cccc(OCc3c(Cl)cnc4c3OCO4)c2C1=O` (single isomer, unassigned) [Compound 179, (R or S)-7-((6-chloro-[1,3]dioxolo[4,5-b]pyridin-7-yl)methoxy)-2-(1-cyclopropyl-2-hydroxy-2-methylpropyl)isoindolin-1-one] has an EC50 of 0.016 µM.
With `CC(C)(O)C(C1CC1)N1Cc2cccc(OCc3ccnc4c3CCC4)c2C1=O` (single isomer, unassigned) [Compound 180, (R or S)-2-(1-cyclopropyl-2-hydroxy-2-methylpropyl)-7-((6,7-dihydro-5H-cyclopenta[b]pyridin-4-yl)methoxy)isoindolin-1-one] the EC50 was 0.035 µM.
Compound `Cc1cnc2c(c1COc1cccc3c1C(=O)N(C(C1CC1)C(C)(C)O)C3)OCO2` (single isomer, unassigned) [Compound 181] has an EC50 of 0.054 µM.
With `Cc1nnc(-c2cccc(-c3cccc4c3C(=O)N([C@H](C3CC3)C(C)(C)O)C4)c2)o1` [Compound 13, (R)-2-(1-cyclopropyl-2-hydroxy-2-methylpropyl)-7-(3-(5-methyl-1,3,4-oxadiazol-2-yl)phenyl)isoindolin-1-one] the EC50 was 0.26 µM.
`Cc1cc(-c2ccc(-c3cc(F)cc4c3C(=O)N([C@H](C3CC3)C(C)(C)O)C4)cc2)on1` [Compound 26, (R)-2-(1-cyclopropyl-2-hydroxy-2-methylpropyl)-5-fluoro-7-(4-(3-methylisoxazol-5-yl)phenyl)isoindolin-1-one] gave an EC50 of 0.001 µM.
Work on `Cc1nnc(-c2ccc(-c3cc(F)cc4c3C(=O)N([C@H](C3CC3)C(C)(C)O)C4)c(F)c2)o1` [Compound 27, (R)-2-(1-cyclopropyl-2-hydroxy-2-methylpropyl)-5-fluoro-7-(2-fluoro-4-(5-methyl-1,3,4-oxadiazol-2-yl)phenyl)isoindolin-1-one] yielded an EC50 of 0.0014 µM.
In the case of `Cn1cc(-c2ccc(-c3nccc4c3C(=O)N([C@H](C3CC3)C(C)(C)O)C4)cc2)cn1` [Compound 29, (R)-2-(1-cyclopropyl-2-hydroxy-2-methylpropyl)-4-(4-(1-methyl-1H-pyrazol-4-yl)phenyl)-1,2-dihydro-3H-pyrrolo[3,4-c]pyridin-3-one], the EC50 is reported as 0.2 µM.
For `Cn1cc(-c2ccc(-c3cncc4c3C(=O)N([C@H](C3CC3)C(C)(C)O)C4)cc2)cn1` [Compound 32, (R)-2-(1-cyclopropyl-2-hydroxy-2-methylpropyl)-7-(4-(1-methyl-1H-pyrazol-4-yl)phenyl)-2,3-dihydro-1H-pyrrolo[3,4-c]pyridin-1-one], the EC50 was 0.057 µM.
For `Cn1cc(-c2ccc(-c3ccnc4c3C(=O)N([C@H](C3CC3)C(C)(C)O)C4)cc2)cn1` [Compound 34, (R)-6-(1-cyclopropyl-2-hydroxy-2-methylpropyl)-4-(4-(1-methyl-1H-pyrazol-4-yl)phenyl)-6,7-dihydro-5H-pyrrolo[3,4-b]pyridin-5-one], the EC50 was 0.048 µM.
Compound `Cc1cc(-c2ccnc3c2C(=O)N([C@H](C2CC2)C(C)(C)O)C3)c(F)cc1-c1cnn(C)c1` [Compound 35, (R)-6-(1-cyclopropyl-2-hydroxy-2-methylpropyl)-4-(2-fluoro-5-methyl-4-(1-methyl-1H-pyrazol-4-yl)phenyl)-6,7-dihydro-5H-pyrrolo[3,4-b]pyridin-5-one] has an EC50 of 0.0068 µM.
`Cn1cc(-c2ccc(-c3ccc(Cl)c4c3C(=O)N([C@H](C3CC3)C(C)(C)O)C4)cc2)cn1` [Compound 37, (R)-4-chloro-2-(1-cyclopropyl-2-hydroxy-2-methylpropyl)-7-(4-(1-methyl-1H-pyrazol-4-yl)phenyl)isoindolin-1-one] gave an EC50 of 0.00024 µM.
Work on `Cc1nnc(-c2ccc(-c3ccc(Cl)c4c3C(=O)N([C@H](C3CC3)C(C)(C)O)C4)cc2)o1` [Compound 38, (R)-4-chloro-2-(1-cyclopropyl-2-hydroxy-2-methylpropyl)-7-(4-(5-methyl-1,3,4-oxadiazol-2-yl)phenyl)isoindolin-1-one] yielded an EC50 of 0.00055 µM.
For `Cc1nnc(-c2ccc(-c3c(Cl)ccc4c3C(=O)N([C@H](C3CC3)C(C)(C)O)C4)cc2)o1` [Compound 40, (R)-6-chloro-2-(1-cyclopropyl-2-hydroxy-2-methylpropyl)-7-(4-(5-methyl-1,3,4-oxadiazol-2-yl)phenyl)isoindolin-1-one], the EC50 was 0.00098 µM.
In the case of `Cc1nnc(-c2ccc(-c3c(F)cc(Cl)c4c3C(=O)N([C@H](C3CC3)C(C)(C)O)C4)cc2)o1` [Compound 41, (R)-4-chloro-2-(1-cyclopropyl-2-hydroxy-2-methylpropyl)-6-fluoro-7-(4-(5-methyl-1,3,4-oxadiazol-2-yl)phenyl)isoindolin-1-one], the EC50 is reported as 0.00025 µM.
For `C[C@@H](N1Cc2cccc(-c3ccccc3OCC(F)(F)F)c2C1=O)C(C)(C)O` [Compound 46, (R)-2-(3-hydroxy-3-methylbutan-2-yl)-7-(2-(2,2,2-trifluoroethoxy)phenyl) isoindolin-1-one], the EC50 was 0.14 µM.
`CC[C@@H](N1Cc2cccc(-c3ccc(-c4nnc(C)o4)cc3)c2C1=O)C(C)(C)O` [Compound 48, 2-[(1R)-1-ethyl-2-hydroxy-2-methyl-propyl]-7-[4-(5-methyl-1,3,4-oxadiazol-2-yl)phenyl]isoindolin-1-one] showed an EC50 of 0.081 µM.
`O=C1c2c(cccc2-c2ccccc2OCC(F)(F)F)CN1[C@@H](CO)C1CC1` [Compound 49, (R)-2-(1-cyclopropyl-2-hydroxyethyl)-7-(2-(2,2,2-trifluoroethoxy)phenyl) isoindolin-1-one] gave an EC50 of 0.092 µM.
